This note sets out measurements from patent publication US4035485A, “Polypeptides” (Imperial Chemical Industries Limited, priority 1974, dated 1977).

In series [1] the test system is secretion of acidic gastric juice in dogs provided with a Heidenhain pouch and whose gastric secretion is stimulated with histamine. The series can be described thus: Inhibition of histamine-stimulated gastric acid secretion in Heidenhain pouch dogs, intravenous injection. In kind it is in vivo, dog. Particulars: for biological activity (inhibition of the secretion of acidic gastric juice), in words: dog, histamine-stimulated gastric secretion; for biological potency (amount causing a 50-70% inhibition of acid secretion): intravenous injection, dog with Heidenhain pouch, secretion stimulated to 60-80% of maximum by histamine infusion, expressed as a range of doses; for biological activity, inhibition of gastric secretion: single determination, single intravenous injection. On the procedure:
This test is used to determine the biological potency of the products, which is defined as the amount of the products which, on administration by intravenous injection to a dog provided with a Heidenhain pouch and whose secretion of gastric acid is stimulated to 60-80- % of the maximum level of secretion by an infusion of histamine, causes a 50-70% inhibition of that acid secretion. Some variation in the biological potency of a particular sample is found if it is measured in different dogs or on different occasions and so the result is best expressed as a range of doses. The physiological effect of inhibiting the secretion of acidic gastric juice is of value in the treatment of duodenal ulcers, and under the test conditions, no serious toxic effects were observed. The polypeptides of the invention also show ulcer healing properties in a standard test.
In the case of each process involving the use of a chromatography column, the eluate was collected in fractions consisting of a defined number of drops using an Ultrorac LKB 7,000 fraction collector (LKB Instruments Ltd., Croydon, Surrey, U.K.) and these fractions assayed for peptide material by measuring the U.V. absorption at 280 mμ. The material was then collected in fractions and the material assayed for biological activity as follows:
Dogs were prepared with separated denervated fundic pouches, and a subcutaneous infusion of histamine was used to stimulate gastric secretion to approximately 60-80% of the maximal rate [usually an infusion of a solution of 600 μg. of histamine (expressed as base) in 0.48 ml. per hour is adequate]. A known amount of test material was dissolved in isotonic saline and, when the dog was secreting gastric juice at a steady rate, a single intravenous injection of this material was administered.
The biological potency may be determined from the results obtained at several different doses.

The nature of series [2]: Water solubility of the isolated lyophilized polypeptide. The settings on record: lyophilized white acidic polypeptide. In kind it is physicochemical.

“Example 2: 46-residue single-chain polypeptide with three internal disulphide bonds, from the 47-residue polypeptide by carboxypeptidase A cleavage of C-terminal leucine (NSDSECPLSHDGYCLHDGVCMYIEALDKYACNCVVGYIGERCQYRD; Epidermal growth factor; UniProt P01133 971-1016, looked up, fragment)”: in series [1], the “biological activity (inhibition of the secretion of acidic gastric juice), in words” value is listed as “biologically active” and the “biological potency (amount causing a 50-70% inhibition of acid secretion)” value is given as 0.2 to 1 μg./kg. Also, the “biological activity (inhibition of the secretion of acidic gastric juice), in words” value in series [1] (listed as polypeptide of the invention) is “potent inhibitors”. The “biological activity, inhibition of gastric secretion” value in series [1] (dose equivalent to 0.6 μg./kg. of starting material) is reported as 42%. In addition, the solubility in water result in series [2] is “water soluble”.
Take “polypeptide having 47 amino-acid residues: 47-residue single-chain polypeptide with three disulphide bonds obtained by incubating β-urogastrone with AM protease (NSDSECPLSHDGYCLHDGVCMYIEALDKYACNCVVGYIGERCQYRDL; Epidermal growth factor; UniProt P01133 971-1017, looked up, fragment)”: in series [1], the “biological activity (inhibition of the secretion of acidic gastric juice), in words” value is on record as “biologically active” and the “biological potency (amount causing a 50-70% inhibition of acid secretion)” value lay in the range of 0.2 to 1 μg./kg. Moreover, the “biological activity, inhibition of gastric secretion” value in series [1] (dose equivalent to 0.7 μg./kg. of starting material) worked out at 30%. In addition, the solubility in water entry in series [2] was “water soluble”.
Take “material in fractions 38-52: peptide cleaved from β-urogastrone by AM protease; ratios Glu 1, Leu 1, Lys 1, Trp 2, Arg 1; N-terminal lysine (KWWELR; Epidermal growth factor; UniProt P01133 1018-1023, looked up, fragment)”: in series [1], the “biological activity (inhibition of the secretion of acidic gastric juice), in words” value is “biologically inactive”.
Turning to “3: polypeptide of Example 2 in which the cystine residues had been reduced to cysteine residues (NSDSECPLSHDGYCLHDGVCMYIEALDKYACNCVVGYIGERCQYRD; Epidermal growth factor cystines reduced; UniProt P01133 971-1016, looked up, fragment) [Example 3]”, the “biological activity (inhibition of the secretion of acidic gastric juice), in words” value in series [1] is listed as “potent inhibitors”.
